Results on six compounds are retold here after patent US11395492B2, “Antimicrobial and agrochemical compositions” (Myco Sciences Limited, priority 2015, dated 2022).

Where two headings read alike, the source gives them in different places.

Data set [1] deals with Rhizoctonia solani. Description: Inhibition of fungal growth assay (radial growth on PDA). The conditions noted are these: for IC50 (% of stock solution) on growth of R. solani: potato dextrose agar, 24 hour culture at 22° C.
Description: Inhibition of fungal growth assay. The Rhizoctonia solani (R. solani) strain was isolated from sclerotia on the skin of a potato and was maintained in culture on potato dextrose agar (PDA) at room temperature (22° C.). To assess the effects of the compositions on fungal growth, 10 microliters of the test compositions diluted in sterile distilled water was placed in the wells of a 12-well tissue culture plate and 1 milliliter of PDA was added by pipette to each well. The plate was agitated to distribute the test composition evenly throughout the agar (distilled water alone was used as control) and then the agar was allowed to set. Plugs of agar containing fungal hyphae (3×3 millimeters) from an established fungal culture were cut out using a scalpel and inserted into holes cut into the centre of the agar in each well of the 12-well plate, which was then cultured at room temperature. To assess the effects of compositions on radial fungal growth, the diameter of the fungal hyphae was measured twice at a 90° angle using a ruler and the average diameter in millimeters was calculated. Concentrations of compositions required to inhibit the radial growth of R. solani by 50% (IC50) were determined graphically.
The nature of data set [2]: pH of diluted compositions and components. The format is physicochemical. The conditions noted are these: 1% suspension in water.
For data set [3], the system named is Rhizoctonia solani.
Description: To assess the effects of composition on fungal growth, 10 microliters of the test compositions diluted in sterile distilled water were placed in the wells of a 12-well tissue culture plate and 1 milliliter of PDA was added by pipette to each well. The plate was agitated to distribute the test composition evenly throughout the agar (distilled water alone was used as control) and then the agar was allowed to set. Plugs of agar containing fungal hyphae (3×3 millimeters) from an established fungal culture were cut out using a scalpel and inserted into holes cut into the centre of the agar in each well of the 12-well plate, which was then cultured at room temperature (22° C.). To assess the effects of compositions on radial fungal growth, the diameter the fungal hyphae was measured twice at a 90° angle using a ruler and the average diameter in millimeters was calculated. If no fungal growth could be detected by eye, the cultures were observed by phase microscopy (40×) to confirm that there was no growth (NG) as judged by visual examination.
To assess the effects of compounds and compositions on sclerotia formation, the R. solani cultures were examined daily and radial fungal growth was measured until the cultures were confluent after which time the development of white (immature) sclerotia and mature (black pigmented) sclerotia was noted and the number of mature sclerotia was counted on day 10 of culture.
The next data set concerns spores of B. cinerea. Description: Sporicidal assay (1) with sodium nitrite, B. cinerea.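 Further: score 0 no growth 1 reduced growth 2 control-level growth.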 Format: cell-based, Botrytis cinerea. The conditions noted are these: test item 1%, 30 min.
A further data set has as its system spores of F. oxysporum. The data set can be described thus: Sporicidal assay (1) with sodium nitrite, F. oxysporum. Further: key: 2* = Control growth; 1 = Reduced growth; 0 = No growth. Format: cell-based, Fusarium oxysporum f. sp. cubense. The conditions noted are these: test item 1%, 30 min.

`[Cl-].[Cu+2].[Cu+2].[OH-].[OH-].[OH-]` [CuOCl-TP, copper oxychloride]: the “IC50 (% of stock solution) on growth of R. solani” value (“IC50 (% of stock solution)” for short) with Rhizoctonia solani [1] is 1.8 % of stock solution. For the same compound, the “pH of a 1% suspension in water” value in data set [2] is on record as 6.2.
As for `O=[PH]([O-])O.[K+]` [Potassium phosphite, potassium phosphite], the “Day 1 growth in mm” value amounted to 19 mm in the data set with Rhizoctonia solani [3] (10 mg/L (Table 9)); 19 mm with Rhizoctonia solani [3] (20 mg/L (Table 9)); 19 mm in the data set with Rhizoctonia solani [3] (40 mg/L (Table 9)); 18 mm in the data set on Rhizoctonia solani [3] (80 mg/L (Table 9)); 15 mm in the data set with Rhizoctonia solani [3] (160 mg/L (Table 9)). The “Day black SCL 1st seen” value was found to be 5 in the data set on Rhizoctonia solani [3] (10 mg/L (Table 9)) and 7 in the data set with Rhizoctonia solani [3] (20 mg/L (Table 9)). In addition, the Day growth confluent in the data set on Rhizoctonia solani [3] (10 mg/L (Table 9)) is 2; with Rhizoctonia solani [3] (20 mg/L (Table 9)) it was 2; in the data set on Rhizoctonia solani [3] (40 mg/L (Table 9)), 2; in the data set on Rhizoctonia solani [3] (80 mg/L (Table 9)) it was 2; in the data set on Rhizoctonia solani [3] (160 mg/L (Table 9)), 3. Besides, the figures for the “Day white SCL 1st seen” value in the data set on Rhizoctonia solani [3] (10 mg/L (Table 9)) and in the data set with Rhizoctonia solani [3] (20 mg/L (Table 9)) were 3 and 4, respectively. Also, the “No. black SCL on day 10” value in the data set with Rhizoctonia solani [3] (10 mg/L (Table 9)) amounted to 9; in the data set with Rhizoctonia solani [3] (20 mg/L (Table 9)) it was 2; in the data set on Rhizoctonia solani [3] (40 mg/L (Table 9)), 0; in the data set with Rhizoctonia solani [3] (80 mg/L (Table 9)), 0; in the data set on Rhizoctonia solani [3] (160 mg/L (Table 9)), 0. In addition, in the data set on Rhizoctonia solani [1], the “IC50 values with R. solani (fungal growth)” value was around 400 µg/mL.
Turning to `NCP(=O)(O)O` [AMPA, aminomethyl phosphonic acid], in the data set with Rhizoctonia solani [3] (0.1 g/L (Table 11)), the “Day 1 growth in mm” value worked out at 20 mm, the “Day black SCL 1st seen” value is reported as 5, the Day growth confluent is recorded as 2 and the “Day white SCL 1st seen” value was found to be 3. In addition, in the data set on Rhizoctonia solani [3] (0.1 g/L (Table 11)), the “No. black SCL on day 10” value was above 20. Moreover, in the data set on Rhizoctonia solani [3] (0.3 g/L (Table 11)), the “Day 1 growth in mm” value is on record as 19 mm, the “Day black SCL 1st seen” value is reported as 8, the Day growth confluent turned out to be 2 and the “Day white SCL 1st seen” value was found to be 3. Further, the “No. black SCL on day 10” value with Rhizoctonia solani [3] (0.3 g/L (Table 11)) is above 20. In the data set on Rhizoctonia solani [3] (1 g/L (Table 11)), the “Day 1 growth in mm” value amounted to 17 mm, the “Day black SCL 1st seen” value was determined as 9, the Day growth confluent was determined as 2 and the “Day white SCL 1st seen” value is reported as 5. The “No. black SCL on day 10” value in the data set with Rhizoctonia solani [3] (1 g/L (Table 11)) is 5.
With `O=C(O)CNCP(=O)(O)O` [Glyphosate, 2-[(phosphonomethyl)amino] acetic acid], in the data set on Rhizoctonia solani [3] (0.27 g/L (Table 11)), the “Day 1 growth in mm” value is recorded as 20 mm, the “Day black SCL 1st seen” value was 5, the Day growth confluent is on record as 2 and the “Day white SCL 1st seen” value turned out to be 3. Further, the “No. black SCL on day 10” value in the data set on Rhizoctonia solani [3] (0.27 g/L (Table 11)) was above 20. Also, in the data set with Rhizoctonia solani [3] (0.8 g/L (Table 11)), the “Day 1 growth in mm” value was 14 mm, the “Day black SCL 1st seen” value turned out to be 6, the Day growth confluent is listed as 2 and the “Day white SCL 1st seen” value is on record as 3. Besides, in the data set on Rhizoctonia solani [3] (0.8 g/L (Table 11)), the “No. black SCL on day 10” value came to 8. For the same compound, in the data set on Rhizoctonia solani [3] (2.7 g/L (Table 11)), the “Day 1 growth in mm” value came to 8 mm, the “Day black SCL 1st seen” value was 8, the Day growth confluent is 6 and the “Day white SCL 1st seen” value is reported as 6. The “No. black SCL on day 10” value with Rhizoctonia solani [3] (2.7 g/L (Table 11)) turned out to be 4. Moreover, in the data set on Rhizoctonia solani [3] (8 g/L (Table 11)), the “Day 1 growth in mm” value amounted to 6 mm and the “No. black SCL on day 10” value is reported as 0.
On to `O=S(=O)([O-])[O-].[Zn+2]` [ZnSO4, zinc sulfate], for which the “Fungal growth score, spores of B. cinerea” value came to 2 in the data set on spores of B. cinerea (NaNO2 0 mM); 2 in the data set on spores of B. cinerea (NaNO2 1 mM); 2 in the data set on spores of B. cinerea (NaNO2 3 mM); 2 in the data set on spores of B. cinerea (NaNO2 10 mM); 2 with spores of B. cinerea (NaNO2 30 mM); 1 with spores of B. cinerea (NaNO2 100 mM). The “IC50 (% of stock solution)” value in the data set with Rhizoctonia solani [1] is on record as 0.33 % of stock solution.
`O.O.O.O.O.O=S(=O)([O-])[O-].[Cu+2]` [CuSO4, copper sulfate pentahydrate]: the “Fungal growth score, spores of B. cinerea” value is given as 2 with spores of B. cinerea (NaNO2 0 mM); 2 with spores of B. cinerea (NaNO2 1 mM); 2 in the data set with spores of B. cinerea (NaNO2 3 mM); 2 with spores of B. cinerea (NaNO2 10 mM); 2 in the data set with spores of B. cinerea (NaNO2 30 mM); 0 in the data set on spores of B. cinerea (NaNO2 100 mM). Moreover, the “IC50 (% of stock solution)” value in the data set on Rhizoctonia solani [1] is given as 0.39 % of stock solution. Besides, the “Fungal growth score, spores of F. oxysporum” value with spores of F. oxysporum (NaNO2 0 mM), in the data set on spores of F. oxysporum (NaNO2 1 mM), in the data set on spores of F. oxysporum (NaNO2 3 mM), in the data set with spores of F. oxysporum (NaNO2 10 mM) and in the data set on spores of F. oxysporum (NaNO2 30 mM) was 2 in each case.
